Source: patent US9155312B2, “Fungicidal combinations of active ingredients” (Bayer Intellectual Property GmbH, priority 2004, dated 2015)

These compounds were tested on Erysiphe graminis f.sp. tritici (assay: Erysiphe test (wheat)/curative). Settings: curative, sprayed 48 hours after inoculation, application rate 25 g/ha, evaluation 7 days after inoculation.
Assay type: in vivo
Procedure: Erysiphe Test (Wheat)/Curative
To prepare a suitable preparation of active compound, a commercial formulation of active compound is diluted with water to the desired concentration.
To test for curative activity, young plants were dusted with spores of Erysiphe graminis f.sp. tritici. 48 hours after the inoculation, the plants were sprayed with the preparation of active compound at the stated application rates.
The plants were placed in a greenhouse at a temperature of about 20° C. and a relative atmospheric humidity of about 80% to promote the development of mildew pustules.
Evaluation was carried out 7 days after the inoculation. 0% means an efficacy which corresponds to that of the control, whereas an efficacy of 100% means that no infection is observed.

Compound	efficacy in % found
CCOC(=O)C1=NN(c2ccc(Cl)cc2Cl)C(C)(C(=O)OCC)C1 (stereo not drawn) [Mefenpyr, diethyl 1-(2,4-dichlorophenyl)-4,5-dihydro-5-methyl-1H-pyrazole-3,5-dicarboxylate]	0%

Same assay, conditions: curative, sprayed 48 hours after inoculation, application rate 125 g/ha, evaluation 7 days after inoculation

Compound	efficacy in % found
CO/N=C(/C1=NOCCO1)c1ccccc1Oc1ncnc(Oc2ccccc2Cl)c1F [Fluoxastrobin, fluoxastrobin]	0%
OC(Cc1ccccc1Cl)(Cn1nc[nH]c1=S)C1(Cl)CC1 (stereo not drawn) [Prothioconazole, prothioconazole]	43%
CCCN(CC)CC1COC2(CCC(C(C)(C)C)CC2)O1 (stereo not drawn) [Spiroxamin, spiroxamine]	0%
CC(C)(C)C(O)(CCc1ccc(Cl)cc1)Cn1cncn1 (stereo not drawn) [Tebuconazole, tebuconazole]	57%
CO/N=C(/C(=O)OC)c1ccccc1CO/N=C(\C)c1cccc(C(F)(F)F)c1 [Trifloxystrobin, trifloxystrobin]	86%
